Data on one molecule can be found in paper PMC3474771, “Evaluation of 14 Organic Solvents and Carriers for Screening Applications in Zebrafish Embryos and Larvae” (PLoS ONE, 2012).

Read-outs that look alike come from different tables or passages of the source.

For data set [1], the system named is zebrafish embryos and larvae. To be noted: for Maximum-tolerated concentration (MTC): highest concentration with no phenotypic abnormalities, followed to 9 dpf. How it is done:
Zebrafish embryos of the AB wild-type strain (originally obtained from the Zebrafish International Resource Center, Eugene, Oregon, USA) were raised at 28°C. Zebrafish husbandry, embryo collection, and embryo and larva maintenance were performed as described, [21]. Toxicity assays were standardly performed in 24-well microtiter plates (wrapped with Parafilm to limit solvent evaporation) using 10 embryos per well in 1 ml of 0.3× Danieau's medium (17 mM NaCl, 2 mM KCl, 0.12 mM MgSO4, 1.8 mM Ca(NO3)2 and 1.5 mM HEPES, pH 7.6). Each experiment was repeated 3 times for a total of 30 embryos or larvae analyzed per solvent per developmental staged tested. Data were only recorded for experiments in which the percentage of normal embryos or larvae in the control group was at least 90%. […] In determining the maximum tolerated concentration (MTC) for each solvent and carrier, all post-exposure embryos and larvae were allowed to develop in larva medium to 9 dpf, so as to detect any deleterious effects appearing after this 24-hour window. Solvents and carriers were obtained from the following suppliers: acetone (Chemlab, Zedelgem, Belgium), acetonitrile (Acros Organics, Geel, Belgium), albumin (BSA, Sigma-Aldrich, Bornem, Belgium), butanone (Riedel-de Haën, Seelze, Germany), cyclodextrin (2- hydroxypropyl-beta-cyclodextrin, Sigma-Aldrich), dimethyl formamide (Acros), DMSO (Agros), ethanol (Fisher Scientific, Doornik, Belgium), glycerol (Acros), isopropanol (Chemlab), methanol (Chemlab), polyethylene glycol-400 (Fluka, Bornem, Belgium), propylene glycol (Certa, Eigenbrakel, Belgium), solketal (Merck, Overijse, Belgium). Statistical analyses were done using chi-square in Microsoft Excel.
Twelve solvents and 2 carriers – chosen based solely on their potential utility for the solubilization and delivery of a structurally diverse range of small molecules – were analyzed for their effects on zebrafish embryos and larvae. The solvents included acetone, acetonitrile, butanone, dimethyl formamide, DMSO, ethanol, glycerol, isopropanol, methanol, polyethylene glycol (PEG-400), propylene glycol, and solketal, and the carriers included albumin (BSA) and cyclodextrin (2-hydroxypropyl-beta-cyclodextrin, or HPBCD). […] For this initial study, the effects of a 24-hour exposure to each solvent and carrier was analyzed using embryos and larvae at the following developmental stages: 2–4 cell, 4 hours-post fertilization (hpf), and 1, 2, 3, 4, and 7 days post-fertilization (dpf).

Another data set relates to early embryos. Details: method as in PMID 18031801. To be noted: solutions containing between 5 and 10% of this solvent; cited from earlier work.

For the molecule `CC(O)CO` (stereo not shown) [Propylene glycol], the “Maximum-tolerated concentration (MTC)” value in data set [1] (exposure for 24 hours beginning at 1 dpf) was more than 2.5%; in data set [1] (exposure for 24 hours beginning at 2 dpf), more than 2.5%; in data set [1] (exposure for 24 hours beginning at 2–4 cell stage) it was more than 2.5%; in data set [1] (exposure for 24 hours beginning at 3 dpf), 2%; in data set [1] (exposure for 24 hours beginning at 4 dpf) it was 1.5%; in data set [1] (exposure for 24 hours beginning at 4 hpf) it was more than 2.5%. Besides, the “Maximum-tolerated concentration (MTC)” value in data set [1] (exposure for 24 hours beginning at 5 dpf) is recorded as more than 2.5%; in data set [1] (exposure for 24 hours beginning at 7 dpf) it was 1.5%. Also, in data set [1] (over all or most developmental stages analyzed, 24-hour exposure), the “MTC / tolerated concentration” value is recorded as “at least 2.5%”. In the data set on early embryos, the “Toxicity of brief exposures to cryoprotectant solutions” value is reported as “toxic”.
